Measurements from US6472348B1, “Pyridone derivatives and herbicides” (Kumiai Chemical Industry Co., Ltd., priority 1996, dated 2002).

Tests used:
Assay type in all cases: in vivo
barnyardgrass (Ec) = assay: Test Example 1: herbicidal effects by paddy field soil treatment; conditions: 100 g of the active ingredient per 10 ares, 21st day after the application, index 0-5 of Table 47;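 also: grade of growth control; 5 = at least 90%; 4 = 70 to 90%; 3 = 50 to 70%; 2 = 30 to 50%; 1 = 10 to 30%; 0 = under 10%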
Summary of the method: (§1)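 Flooded paddy-soil pots (3 cm water) sown after puddling/leveling; treatment 100 g a.i./10 ares; greenhouse culture; herbicidal effect rated visually on a scoring scale at 21 d post-application.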

bulrush (Sc) = assay: as above; conditions: 100 g of the active ingredient per 10 ares, 21st day after the application, index 0-5 of Table 47;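 also: grade of growth control; 5 = at least 90%; 4 = 70 to 90%; 3 = 50 to 70%; 2 = 30 to 50%; 1 = 10 to 30%; 0 = under 10%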
Summary of the method: as §1

monochoria (Mo) = assay: as above; conditions: 100 g of the active ingredient per 10 ares, 21st day after the application, index 0-5 of Table 47;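 also: grade of growth control; 5 = at least 90%; 4 = 70 to 90%; 3 = 50 to 70%; 2 = 30 to 50%; 1 = 10 to 30%; 0 = under 10%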
Summary of the method: as §1

China jute (Ab) [1] = assay: Test Example 6: crop plant selectivity by upland field soil treatment (soybean), herbicidal effects; design: scale not given here; conditions: 21st day after application
Summary of the method: (§2)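 Greenhouse pot test with soil-applied compound after sowing soybean and weeds in sand; effects graded on day 21 after application.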

[2] = tested on: common lambsquarters (Ch); assay: as above; design: scale not given here; conditions: 21st day after application
Summary of the method: as §2

green foxtail (Se) = assay: as above; design: scale not given here; conditions: 21st day after application
Summary of the method: as §2

China jute (Ab) [3] = assay: Test Example 11: crop plant selectivity by upland field foliage treatment (corn), herbicidal effects; design: scale not given here; conditions: upland field foliage treatment (corn test), dose 1.6 g ai/10a, 14th day after treatment
Summary of the method: (§3)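 Corn and the weed species were sown together in sand-filled pots and grown in a greenhouse for 2 weeks before foliar treatment. Herbicidal effect was scored on day 14 after treatment against a graded standard scale, with corn phytotoxicity scored alongside.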

[4] = tested on: common lambsquarters (Ch); assay: as above; design: scale not given here; conditions: upland field foliage treatment (corn test), dose 1.6 g ai/10a, 14th day after treatment
Summary of the method: as §3

pale smartweed (Po) = assay: as above; design: scale not given here; conditions: upland field foliage treatment (corn test), dose 1.6 g ai/10a, 14th day after treatment
Summary of the method: as §3

Cn1c(C(F)(F)F)ccc(-c2c(F)cc(Cl)c3oc(CO)cc23)c1=O [Compound No. 4-5, 3-(7-chloro-5-fluoro-2-hydroxymethylbenzofuran-4-yl)-1-methyl-6-trifluoromethyl-2-(1H)-pyridone]
5: Herbicidal effects Ec (barnyardgrass (Ec)) | Herbicidal effects Sc (bulrush (Sc)) | Herbicidal effects Mo (monochoria (Mo)) | Herbicidal effects Ab (China jute (Ab) [1]; dose 6.3 g ai/10a) | Herbicidal effects Ch ([2]; dose 6.3 g ai/10a) | Herbicidal effects Se (green foxtail (Se); dose 6.3 g ai/10a) | Herbicidal effects Ab (China jute (Ab) [3]) | Herbicidal effects Ch [4] | Herbicidal effects Po (pale smartweed (Po))

Cn1c(C(F)(F)F)ccc(-c2c(F)cc(Cl)c3occc23)c1=O [Compound No. 4-28, 3-(7-chloro-5-fluorobenzofuran-4-yl)-1-methyl-6-trifluoromethyl-2-(1H)-pyridone]
5: Herbicidal effects Ec (barnyardgrass (Ec)) | Herbicidal effects Sc (bulrush (Sc)) | Herbicidal effects Mo (monochoria (Mo)) | Herbicidal effects Ab (China jute (Ab) [1]; dose 1.6 g ai/10a) | Herbicidal effects Ch ([2]; dose 1.6 g ai/10a) | Herbicidal effects Se (green foxtail (Se); dose 1.6 g ai/10a) | Herbicidal effects Ab (China jute (Ab) [3]) | Herbicidal effects Ch [4] | Herbicidal effects Po (pale smartweed (Po))
